Reference: PMC3169413 (Acta Crystallographica Section F: Structural Biology and …, 2011)

Legend:
[1] = biological target: FumC (fumarate hydratase) from R. prowazekii (Rickettsia prowazekii, UniProt Q9ZCQ4); settings: active site; product analog; from crystallization precipitant, 1.4 M sodium malonate pH 6.0, 289 K; one malonate per protomer
crystal structure = biological target: the molecule itself; assay: crystal structure

## O=C(O)CC(=O)O [malonate]
[1]
  X-ray crystal structure, 2.4 A: The R. prowazekii FumC structure was determined in complex with the product analog malonate.

B1: fumarate hydratase (FumC) from Rickettsia prowazekii strain Madrid E (enzyme)
chain: MKNYRIESDSFGEIQIEEKFYWGAQTQRSLNNFKISKQKMPKILIRALAILKKCAAQVNYEFGDLEYKIATSIDKAIDRILAGEFEDNFPLVVWQTGSGTQTNMNMNEVIASIANEELTGKKGGKFPVHPNDHVNKGQSSNDSFPTAMHIATVLATKQQLIPALNNLLTYLQDKSKDWDKIIKIGRTHLQDATPLTLKQEFSGYITQIEYALERIEDALKKVYLLAQGGTAVGTGINSKIGFDIKFAQKVAEFTQQPFKTAPNKFESLAAHDALVEFSGTLNTIAVSLMKIANDIRLLGSGPRCGLGELHLPENEPGSSIMPGKVNPTQVEALTMVCTQVMGNHVTVTIAGSNGHLELNVFKPVIIYNILQSIELLSDSVNSFVTHCVKGLEPNIARINTLRDKSLMLVTVLNPHIGYDNAAKIAKEAHKYGITLKEAAKKLNFLSEEEFDKIVVPEKMIS
notes: also called fumarase; class II fumarate hydratase
Crystal structure
  binding result: binds
